The subject of experiment [1] is Spontaneously hypertensive rats (SHR). The experiment can be described thus: antihypertensive activity in conscious spontaneously hypertensive rats (mean arterial pressure). It counts as in vivo. Particulars: Rattus norvegicus, SHR iv; for ED25: 5 min, 5 min after dose, cumulative dosing, read-out: ED25, change in mean arterial pressure. On the procedure: After a 2 day recovery from surgery, three baseline blood pressure measurements were made at 5 min intervals in conscious SHR. Compounds to be tested or vehicle were then administered intravenously in a dose-dependent manner (0.3-10 mg base/kg) while arterial pressure was recorded continuously on a polygraph. The mean arterial pressure response was measured 5 minutes after the administration of each dose of the test compound and the next dose given in a cumulative dose fashion. The response to each dose of the test compound was calculated as the difference from the mean of the three baseline measurements.

Experiment [2] concerns the target T1, cGMP-PDE V (Homo sapiens, UniProt O76074).
T1 construct: isolated from cardiovascular tissues (heart and aorta); from tissue; host or cells: cardiovascular tissues (heart and aorta)
The experiment can be described thus: cGMP-PDE V inhibition (isozyme isolated from cardiovascular tissue). It is filed as biochemical, various animal species and man. From the text: The cGMP-PDE and other PDE isozymes were isolated from cardiovascular tissues (heart and aorta) of various animal species and man by anion-exchange and affinity chromatography as described by Silver et al., Sec. Messeng. Phos. […] Cyclic Nucleotide Res. 10:69-92.

The subject of experiment [3] is Spontaneously hypertensive rats (SHR). Put plainly: antihypertensive activity in conscious spontaneously hypertensive rats (mean arterial pressure). It counts as in vivo. Particulars: Rattus norvegicus.
For experiment [4], the system named is Spontaneously hypertensive rats. Put plainly: reversal of nitroglycerin-induced tolerance in spontaneously hypertensive rats. It counts as in vivo, Spontaneously hypertensive rats (17-25 weeks of age). Particulars: for Percent (%) Reversal of Nitroglycerin-induced Tolerance: iv pretreatment 5-10 min before nitroglycerin challenge. On the procedure:
Spontaneously hypertensive rats (17-25 weeks of age) were made nitroglycerin tolerant by repeated administration of high doses of nitroglycerin (100 mg/kg, s.c., 3 times/day for 3 consecutive days). To confirm tolerance challenge doses of nitroglycerin were administered intravenously at doses ranging from 1-300 μg/kg and the maximum change in mean arterial pressure (MAP) for each dose was recorded. Groups of tolerant rats were pretreated with the compounds of the invention (tolerant pretreated group) or with vehicle (0.05N NaOH) (tolerant vehicle pretreated group) intravenously 5-10 minutes prior to administration of challenge doses of nitroglycerin. The administration of challenge doses of nitroglycerin to non-tolerant rats (the non-tolerant group) caused a dose-dependent decrease in MAP of between 10 to 40 mm Hg. […] The area under the dose-MAP curve was calculated for the non-tolerant group and for the tolerant vehicle pretreated group and the tolerant pretreated group. The percent reversal of nitrate-inducedtolerance was calculated as follows:
Percent Reversal=(AUCtol-pretreated -AUCtol-veh)/(AUCnontol
wherein: AUCnontol =the area under the dose-MAP curve for the non-tolerant group.
AUCtol-veh =the area under the dose-MAP curve for the tolerant vehicle pretreated group.
AUCtol-pretreated =the area under the dose-MAP curve for the tolerant pretreated group.
The following table summarizes the results obtained from the testing of representative compounds of the invention.

Setting [5] is: read-out: Percent Inhibition cGMP-PDE V.

Experimental findings from patent US5656629A, “6-substituted pyrazolo (3,4-d)pyrimidin-4-ones and compositions and methods of use thereof” (Sanofi Winthrop, Inc., priority 1995, dated 1997) are described below.

Structures are written as SMILES.

As to `CCc1nn(C2CCCC2)c2nc(Cc3ccccc3)[nH]c(=O)c12` [1(b), 1-cyclopentyl-3-ethyl-6-(phenylmethyl)-pyrazolo[3,4-d]pyrimdin-4-one], the change in vivo at 1 mg/kg in experiment [1] (1 mg/kg) is -15%. Besides, the concentration for half-maximal inhibition (IC50) (usually the point on the concentration scale where inhibition reaches its midpoint) in experiment [2] came out at 0.01 µM. Moreover, the change in vivo at 30 mg/kg in experiment [3] (SHR iv, 30 mg/kg) is -29%.
`CCc1nn(C2CCCC2)c2nc(Cc3ccc(OCCN4CCOCC4)cc3)[nH]c(=O)c12` [10(b)]: the change in vivo at 10 mg/kg in experiment [1] was -17%. Also, in experiment [2], the IC50 came to 0.27 µM.
With `CCc1[nH]n(C2CCCC2)c2nc(Cc3ccc(OCc4nnn[nH]4)cc3)nc(=O)c1-2` [11(b), 1-cyclopentyl-3-ethyl-6-[4-(5-tetrazolylmethoxy)phenylmethyl]pyrazolo[3,4-d]pyrimidin-4-one], in experiment [1], the change in vivo at 10 mg/kg was -4%. 0.31 µM corresponded to half-maximal inhibition in experiment [2] (IC50).
With `CCc1[nH]n(C2CCCC2)c2nc(Cc3ccc(C(F)(F)F)cc3)nc(=O)c1-2` [24(b), 1-cyclopentyl-3-ethyl-6-(4-trifluoromethylphenylmethyl) pyrazolo[3,4-d]pyrimidin-4-one], the change in vivo at 10 mg/kg in experiment [1] was -8%. The concentration for half-maximal inhibition (IC50) in experiment [2] was 0.18 µM.
For the compound `CCc1[nH]n(C2CCCC2)c2nc(Cc3ccc([N+](=O)[O-])cc3)nc(=O)c1-2` [25(a), 1-cyclopentyl-3-ethyl-6-(4-nitrophenylmethyl)pyrazolo[3,4-d]pyrimidin-4-one], the change in vivo at 10 mg/kg in experiment [1] is -5%. In addition, in experiment [2], the half-inhibitory concentration (IC50) amounted to 0.076 µM.
Turning to `CCc1[nH]n(C2CCCC2)c2nc(Cc3ccc(OC(=O)c4ccc(CN(CC)CC)cc4)cc3)nc(=O)c1-2` [33(b), 1-cyclopentyl-3-ethyl-6-[4-[4-(diethylaminomethyl)phenylcarbonyloxy]phenylmethyl]pyrazolo[3,4-d]pyrimidin-4-one], in experiment [1], the ED25 was determined as 9.3 mg/kg and the change in vivo at 10 mg/kg is -27%. Besides, in experiment [2] (setting [5]), the inhibition (as a rule, the drop in the measured response relative to a control, in per cent) at 0.1 µM was determined as 56%.
`CCc1nn(C2CCCC2)c2nc(Cn3cccc3)[nH]c(=O)c12` [Example 5, 1-cyclopentyl-3-ethyl-6-(1-pyrrolylmethyl)-pyrazolo[3,4-d]pyrimidin-4-one] displayed an IC50 in experiment [2] of 0.31 µM.
Regarding `CCc1[nH]n(C2CCCC2)c2nc(Cc3ccc(OC)cc3)nc(=O)c1-2` [Example 6, 1-cyclopentyl-3-ethyl-6-(4-methoxyphenylmethyl)pyrazolo[3,4-d]pyrimidin-4-one], in experiment [1], the ED25 was 8.4 mg/kg and the change in vivo at 10 mg/kg is -30%. For the same compound, inhibition in experiment [2] was half-maximal at 0.023 µM (IC50). The “Percent (%) Reversal of Nitroglycerin-induced Tolerance” value (shortened to “Percent (%) Reversal”) in experiment [4] (Dose 1.0 mg/kg) came out at 69%. For the same compound, the “Percent (%) Reversal” value in experiment [4] (Dose 3.0 mg/kg) was 140%.
As to `CCc1[nH]n(C2CCCC2)c2nc(Cc3ccc(O)cc3)nc(=O)c1-2` [Example 7, 1-cyclopentyl-3-ethyl-6-(4-hydroxyphenylmethyl)pyrazolo[3,4-d]pyrimidin-4-one], the ED25 in experiment [1] stood at 4.6 mg/kg. Moreover, in experiment [2], inhibition was half-maximal at 0.019 µM (IC50). Moreover, the “Percent (%) Reversal” value in experiment [4] (Dose 0.3 mg/kg) is 46%; in experiment [4] (Dose 1.0 mg/kg) it was 45%.
Turning to `CCc1[nH]n(C2CCCC2)c2nc(Cc3ccccn3)nc(=O)c1-2` [Example 9, 1-cyclopentyl-3-ethyl-6-(2-pyridinylmethyl)pyrazolo[3,4-d]pyrimidin-4-one], the 50% inhibitory concentration (IC50) in experiment [2] was 0.54 µM.
In the case of `CCc1[nH]n(C2CCCC2)c2nc(Cc3cccnc3)nc(=O)c1-2` [Example 13, 1-cyclopentyl-3-ethyl-6-[3-pyridinylmethyl]pyrazolo[3,4-d]pyrimidin-4-one], in experiment [2], the midpoint of inhibition, the IC50, lay at 0.66 µM.
On to `CCc1[nH]n(C2CCCC2)c2nc(CO)nc(=O)c1-2` [Example 17, 1-cyclopentyl-3-ethyl-6-(hydroxymethyl)pyrazolo[3,4-d]pyrimidin-4-one], for which the inhibition at 1 µM in experiment [2] (setting [5]) is 20%. Further, the inhibition at 10 µM in experiment [2] (10 μM, read-out: Percent Inhibition cGMP-PDE V) is 61%.
As to `CCc1[nH]n(C2CCCC2)c2nc(Cc3cccc(OC)c3)nc(=O)c1-2` [Example 19, 1-cyclopentyl-3-ethyl-6-(3-methoxyphenylmethyl)pyrazolo[3,4-d]pyrimidin-4-one], in experiment [1], the ED25 stood at 11 mg/kg and the change in vivo at 10 mg/kg was -21%. 0.033 µM corresponded to half-maximal inhibition in experiment [2] (IC50).
For the compound `CCc1[nH]n(C2CCCC2)c2nc(Cc3cccc(O)c3)nc(=O)c1-2` [Example 20, 1-cyclopentyl-3-ethyl-6-(3-hydroxyphenylmethyl)pyrazolo[3,4-d]pyrimidin-4-one], in experiment [1], the ED25 amounted to 10.1 mg/kg and the change in vivo at 10 mg/kg was -23%. This compound also gave an IC50 in experiment [2] of 0.086 µM.
Compound `CCc1[nH]n(C2CCCC2)c2nc(Cc3cccn3C)nc(=O)c1-2` [Example 22, 1-cyclopentyl-3-ethyl-6-(1-methyl-2-pyrrolylmethyl)pyrazolo[3,4-d]pyrimidin-4-one] yielded an IC50 in experiment [2] of 0.3 µM.
As for `CCc1[nH]n(C2CCCC2)c2nc(Cc3ccc(N)cc3)nc(=O)c1-2` [Example 26, 1-cyclopentyl-3-ethyl-6-(4-aminophenylmethyl)pyrazolo[3,4-d]pyrimidin-4-one], in experiment [1], the ED25 was found to be 4.2 mg/kg and the change in vivo at 10 mg/kg was -46%. For the same compound, the IC50 in experiment [2] is 0.0087 µM. Also, the change in vivo at 10 mg/kg in experiment [3] (SHR, 10 mg/kg, po) is -56%.
On to `CCc1[nH]n(C2CCCC2)c2nc(Cc3ccc(NS(C)(=O)=O)cc3)nc(=O)c1-2` [Example 29, 1-cyclopentyl-3-ethyl-6-[4-(methylsulfonylamino)phenylmethyl]pyrazolo[3,4-d]pyrimidin-4-one], for which, in experiment [2] (setting [5]), the inhibition at 0.01 µM stood at 77% and the inhibition at 0.1 µM was 94%.
`CCc1[nH]n(C2CCCC2)c2nc(Cc3ccccc3O)nc(=O)c1-2` [Example 30, 1-cyclopentyl-3-ethyl-6-(2-hydroxyphenylmethyl)pyrazolo[3,4-d]pyrimidin-4-one]: in experiment [2] (setting [5]), the inhibition at 0.1 µM stood at 43% and the inhibition at 1 µM is 73%.
With `CCc1[nH]n(C2CCCC2)c2nc(Cc3ccsc3)nc(=O)c1-2` [Example 31, 1-cyclopentyl-3-ethyl-6-(3-thienylmethyl)pyrazolo[3,4-d]pyrimidin-4-one], in experiment [2], the IC50 is 0.03 µM.
`CCc1[nH]n(C2CCCC2)c2nc(Cc3cccs3)nc(=O)c1-2` [Example 32, 1-cyclopentyl-3-ethyl-6-(2-thienylmethyl)pyrazolo[3,4-d]pyrimidin-4-one]: in experiment [2] (setting [5]), the inhibition at 0.01 µM is 24%, the inhibition at 0.1 µM amounted to 58% and the inhibition at 1 µM turned out to be 89%.
`CCc1[nH]n(C2CCCC2)c2nc(Cc3ccccc3N)nc(=O)c1-2` [Example 34, 1-cyclopentyl-3-ethyl-6-(2-aminophenylmethyl)pyrazolo[3,4-d]pyrimidin-4-one]: in experiment [2] (setting [5]), the inhibition at 0.1 µM was 45% and the inhibition at 1 µM amounted to 78%.
Regarding `CCc1[nH]n(C2CCCC2)c2nc(Cc3ccc(N(C)C)cc3)nc(=O)c1-2` [Example 35, 1-cyclopentyl-3-ethyl-6-(4-dimethylaminophenylmethyl)pyrazolo[3,4-d]pyrimidin-4-one], in experiment [2] (setting [5]), the inhibition at 0.1 µM was 34% and the inhibition at 1 µM worked out at 53%.
For `CCc1[nH]n(C2CCCC2)c2nc(Oc3ccccc3)nc(=O)c1-2` [Example 39, 1-cyclopentyl-3-ethyl-6-(phenyloxy)pyrazolo[3,4-d]pyrimidin-4-one], in experiment [2] (setting [5]), the inhibition at 0.1 µM is 33% and the inhibition at 1 µM worked out at 74%.
On to `O=[N+]([O-])OCC(CO[N+](=O)[O-])O[N+](=O)[O-]` [nitroglycerin, reference compound], for which the “hypotensive response to nitroglycerin challenge” value in experiment [4] (tolerant vehicle pretreated group, 1-300 μg/kg iv) is reported as “significant reduction of the hypotensive response”.
